Data set [1] is described as follows: Plasma precipitation screening assay. Details: species or system rat. As to the method:
An aliquot (10 μL) of compound solubilized in physiological buffer or the formulation used for its parenteral administration in vivo, and of various dilutions thereof in phosphate-buffered saline (PBS), is mixed 1:1 with rat plasma. After 10 minutes incubation at room temperature the UV-absorption of the mixtures is measured and compared to absorption of blank plasma or plasma with vehicle solution. A significant (often concentration dependent) increase of absorption is indicative of precipitation.
Whole blood is obtained from WISTAR rats (Hanbrl:Wist SPF) under terminal anaesthesia after intraperitoneal injection of a pentobarbital solution (from animals euthanized for collection of tissue for other experimental purposes). Blood is collected in 1.2 mL of Heparin S-Monovette tubes (Sarstedt) for the preparation of heparin plasma.
The tubes are then centrifuged for 5 min at 5200 g at room temperature to isolate the plasma supernatant. The plasma is used in the assay within 48 h of collection (storage at 4° C.).
Test compounds are received as powder or formulated. When obtained as powder, they are solubilized in 0.9% aq. sodium chloride solution in order to get the highest indicated concentration to be tested. The solubility is visually checked and the solutions are filtered using 0.45 PVDF hydrophilic filters (Durapore®, Darmstadt, Germany), to remove possible solid impurities. pH of this initial solution might be measured in the filtered stock solutions, before proceeding to prepare a compound dilution series in PBS (1:1-dilution steps).
The assay is conducted in 384-well plates. 10 μL of rat plasma is added to 10 μL of the various compound solutions. The assay is performed in duplicate. 10 μL of vehicle (0.9% aq. sodium chloride solution, PBS) added to the plasma is used as a negative control. The absorption is measured at 362 nm.
Raw data obtained are absorbance data. The difference between absorbance of the sample and mean absorbance of vehicle is calculated. The minimal effect concentration (MEC) is defined as the lowest concentration giving an absorbance difference, OD362≥0.05.

Another data set deals with A. baumannii ATCC 17978. The data set can be described thus: 50% growth inhibitory concentration (IC50) determination, antimicrobial susceptibility testing. Type of data set: cell-based. Particulars: Acinetobacter baumannii. As for the experimental part: The in vitro antimicrobial activity of the compounds was alternatively determined according to the following procedure:
The assay used a 10-points Iso-Sensitest broth medium to measure quantitatively the in vitro activity of the compounds against A. baumannii ATCC 17978.
Stock compounds in DMSO were serially twofold diluted (e.g. range from 50 to 0.097 μM or from 10 to 0.020 μM final concentration) in 384 wells microtiter plates and inoculated with 49 μl the bacterial suspension in Iso-Sensitest medium to have a final cell concentration of ˜5×10^(5)CFU/ml in a final volume/well of 50 μl/well. Microtiter plates were incubated at 35±2° C.
Bacterial cell growth was determined with the measurement of optical density at X=600 nm each 20 minutes over a time course of 16h.
Growth inhibition was calculated during the logarithmic growth of the bacterial cells with determination of the concentration inhibiting 50% (IC50) and 90% (IC90) of the growth.
Table 1 provides the 50% growth inhibitory concentrations (IC50) in micromoles per liter of the compounds of present invention obtained against the A. baumannii strain ATCC17978.

Setting [2] is: Wistar (Hanbrl:Wist SPF), rat, 10 min.
The mark [3] stands for this setting: 50% growth inhibition, A. baumannii strain ATCC17978, Iso-Sensitest medium, read-out: IC50 ATCC17978.

Read-outs that look alike come from different tables or passages of the source. Bounds are passed on as bounds.

The record followed here is US11819532B2, “Peptide macrocycles against Acinetobacter baumannii” (Hoffmann-La Roche Inc., priority 2018, dated 2023).

The IC50 is the concentration that gives 50% inhibition. As to `CN1C(=O)[C@H](CCCCN)NC(=O)[C@H](CCCN)NCc2cccnc2Sc2c(F)ccc(-c3ccc(C(=O)O)cc3)c2CNC(=O)[C@@H]1Cc1c[nH]c2ccccc12` [Example 9.00, 4-[(1 S,14S,17S)-14-(4-aminobutyl)-1-(3-aminopropyl)-25-fluoro-17-(1H-indol-3-ylmethyl)-16-methyl-12,15,18-trioxo-2-thia-4,10,13,16,19-pentazatricyclo[19.4.0.03,8]pentacosa-1(25), 3(8), 4,6,21,23-hexaen-22-yl]benzoic Acid], in data set [1] (setting [2]), the “Plasma precipitation MEC” value stood at 870 µmol/L. Moreover, the IC50 in the data set on A. baumannii ATCC 17978 (setting [3]) was 20 nM.

As for `Cc1[nH]c2ccccc2c1C[C@H]1C(=O)NCc2c(cccc2-c2ccc(C(=O)O)cc2)Sc2ncccc2CN[C@@H](CCCN)C(=O)N[C@@H](CCCCN)C(=O)N1C` [Example 6.00, 4-[(11S,14S,17S)-14-(4-Aminobutyl)-11-(3-aminopropyl)-16-methyl-17-[(2-methyl-1H-indol-3-yl)methyl]-12,15,18-trioxo-2-thia-4,10,13,16,19-pentazatricyclo[19.4.0.03,8]pentacosa-1(25), 3,5,7,21,23-hexaen-22-yl]benzoic Acid], in data set [1] (setting [2]), the “Plasma precipitation MEC” value worked out at 1090 µmol/L. Further, in the data set on A. baumannii ATCC 17978 (setting [3]), the IC50 was found to be 23 nM.

On to `CN1C(=O)[C@H](CCCCN)NC(=O)[C@H](CCCN)NCc2cccnc2Sc2c(Cl)ccc(-c3ccc(C(=O)O)cc3)c2CNC(=O)[C@@H]1Cc1c[nH]c2ccccc12` [Example 239 of WO2017/072062, reference compound], for which the “Plasma precipitation MEC” value in data set [1] (minimal effect concentration, lowest concentration giving absorbance difference OD362≥0.05, rat plasma 1:1, 10 minutes room temperature) was found to be 470 µmol/L. The IC50 in the data set with A. baumannii ATCC 17978 (ATCC17978, read-out: IC50 ATCC17978) stood at 20 nM.

With `CN1C(=O)[C@H](CCCCN)NC(=O)[C@H](CCCN)NCc2cccnc2Sc2c(Cl)ccc(-c3ccn4nc(C(=O)O)cc4c3)c2CNC(=O)[C@@H]1Cc1c[nH]c2ccccc12` [Example 2.01, 5-[(11S,14S,17S)-14-(4-aminobutyl)-11-(3-aminopropyl)-25-chloro-17-(1H-indo1-3-ylmethyl)-16-methyl-12,15,18-trioxo-2-thia-4,10,13,16,19-pentazatricyclo[19.4.0.03,8]pentacosa-1(25),3(8),4,6,21,23-hexaen-22-yl]pyrazolo[1,5-a]pyridine-2-carboxylic acid], in data set [1] (setting [2]), the “Plasma precipitation MEC” value came out at 820 µmol/L. Moreover, the IC50 in the data set with A. baumannii ATCC 17978 (setting [3]) stood at 20 nM.

For `CN1C(=O)[C@H](CCCCN)NC(=O)[C@H](CCCN)NCc2nccnc2Sc2c(Cl)ccc(-c3ccc(C(=O)O)c(Cl)c3)c2CNC(=O)[C@@H]1Cc1c[nH]c2ccccc12` (racemic) [Example 8.01, 2-chloro-4-[rac-(11S,14S,17S)-14-(4-aminobutyl)-11-(3-aminopropyl)-25-chloro-17-(1H-indo1-3-ylmethyl)-16-methyl-12,15,18-trioxo-2-thia-4,7,10,13,16,19-hexazatricyclo[19.4.0.03,8]pentacosa-1(21),3,5,7,22,24-hexaen-22-yl]benzoic acid], in data set [1] (setting [2]), the “Plasma precipitation MEC” value is 760 µmol/L. Moreover, in the data set with A. baumannii ATCC 17978 (setting [3]), the IC50 worked out at 28 nM.

As for `Cc1ccc(-c2ccn(CC(=O)O)c(=O)c2)c2c1Sc1ncccc1CN[C@@H](CCCN)C(=O)N[C@@H](CCCCN)C(=O)N(C)[C@@H](Cc1c[nH]c3ccccc13)C(=O)NC2` [Example 10.01, 2-[4-[(1S,4S,17S)-14-(4-Aminobutyl)-11-(3-aminopropyl)-17-(1H-indol-3-ylmethyl)-16,25-dimethyl-12,15,18-trioxo-2-thia-4,10,13,16,19-pentazatricyclo[19.4.0.03,8]pentacosa-1(25), 3(8), 4,6,21,23-hexaen-22-yl]-2-oxo-1-pyridyl]acetic Acid], the “Plasma precipitation MEC” value in data set [1] (setting [2]) was >1700 µmol/L. For the same molecule, in the data set on A. baumannii ATCC 17978 (setting [3]), the half-inhibitory concentration (IC50) came out at 78 nM.

With `Cc1ccc(-c2ccc(C(=O)O)cc2)c2c1Sc1ncccc1CN[C@@H](CCCN)C(=O)N[C@@H](CCCCN)C(=O)N(C)[C@@H](Cc1c[nH]c3ccccc13)C(=O)NC2` [Example 10.00, 4-[(11S,14S,17S)-14-(4-Aminobutyl)-1-(3-aminopropyl)-17-(1H-indol-3-ylmethyl)-16,25-dimethyl-12,15,18-trioxo-2-thia-4,10,13,16,19-pentazatricyclo[19.4.0.03,8]pentacosa-1(25), 3(8), 4,6,21,23-hexaen-22-yl]benzoic Acid], the “Plasma precipitation MEC” value in data set [1] (setting [2]) came out at 870 µmol/L. Also, the IC50 with A. baumannii ATCC 17978 (setting [3]) came to 24 nM.

Regarding `CN1C(=O)[C@H](CCCCN)NC(=O)[C@H](CCCN)NCc2cccnc2Sc2c(Cl)ccc(-c3ccc(OCC(=O)O)cc3)c2CNC(=O)[C@@H]1Cc1c[nH]c2ccccc12` [Example 241 of WO2017/072062, reference compound], in data set [1] (setting [2]), the “Plasma precipitation MEC” value is 95 µmol/L. The IC50 in the data set on A. baumannii ATCC 17978 (setting [3]) was found to be 50 nM.

Take `Cc1[nH]c2ccccc2c1C[C@H]1C(=O)NCc2c(-c3ccn(CC(=O)O)c(=O)c3)ccc(Cl)c2Sc2ncccc2CN[C@@H](CCCN)C(=O)N[C@@H](CCCCN)C(=O)N1C` [Example 7.01, 2-[4-[(1 S,14S,17S)-14-(4-Aminobutyl)-11-(3-aminopropyl)-25-chloro-16-methyl-17-[(2-methyl-1H-indol-3-yl)methyl]-12,15,18-trioxo-2-thia-4,10,13,16,19-pentazatricyclo[19.4.0.03,8]pentacosa-1(25), 3(8), 4,6,21,23-hexaen-22-yl]-2-oxo-1-pyridyl]acetic Acid]: the “Plasma precipitation MEC” value in data set [1] (setting [2]) is 1650 µmol/L. Also, in the data set on A. baumannii ATCC 17978 (setting [3]), the IC50 was determined as 46 nM.

As to `CN1C(=O)[C@H](CCCCN)NC(=O)[C@H](CCCN)NCc2cccnc2Sc2cncc(-c3ccc(C(=O)O)cc3)c2CNC(=O)[C@@H]1Cc1c[nH]c2ccccc12` [Example 18.00, 4-[(11S,14S,17S)-14-(4-Aminobutyl)-1-(3-aminopropyl)-17-(1H-indol-3-ylmethyl)-16-methyl-12,15,18-trioxo-2-thia-4,10,13,16,19,24-hexazatricyclo[19.4.0.03,8]pentacosa-1(25), 3(8), 4,6,21,23-hexaen-22-yl]benzoic Acid], the “Plasma precipitation MEC” value in data set [1] (setting [2]) was >1760 µmol/L. Moreover, the IC50 in the data set with A. baumannii ATCC 17978 (setting [3]) is 75 nM.

For `COc1cc(-c2ccc(Cl)c3c2CNC(=O)[C@H](Cc2c[nH]c4ccccc24)N(C)C(=O)[C@H](CCCCN)NC(=O)[C@H](CCCN)NCc2nccnc2S3)ccc1C(=O)O` (racemic) [Example 8.03, 2-methoxy-4-[rac-(11S,14S,17S)-14-(4-aminobutyl)-11-(3-aminopropyl)-25-chloro-17-(1H-indo1-3-ylmethyl)-16-methyl-12,15,18-trioxo-2-thia-4,7,10,13,16,19-hexazatricyclo [19.4.0.03,8]pentacosa-1(25),3(8),4,6,21,23-hexaen-22-yl]benzoic acid], in data set [1] (setting [2]), the “Plasma precipitation MEC” value amounted to 760 µmol/L. The IC50 in the data set with A. baumannii ATCC 17978 (setting [3]) was 78 nM.

Consider `CN1C(=O)[C@H](CCCCN)NC(=O)[C@H](CCCN)NCc2nccnc2Sc2c(Cl)ccc(-c3ccc(C(=O)O)c(F)c3)c2CNC(=O)[C@@H]1Cc1c[nH]c2ccccc12` [Example 8.02, 4-[(11S,14S,17S)-14-(4-aminobutyl)-11-(3-aminopropyl)-25-chloro-17-(1H-indo1-3-ylmethyl)-16-methyl-12,15,18-trioxo-2-thia-4,7,10,13,16,19-hexazatricyclo[19.4.0.03,8]pentacosa-1(21),3,5,7,22,24-hexaen-22-yl]-2-fluoro-benzoic acid], for which the “Plasma precipitation MEC” value in data set [1] (setting [2]) amounted to 380 µmol/L. Further, in the data set on A. baumannii ATCC 17978 (setting [3]), the IC50 worked out at 19 nM.

Take `CN1C(=O)[C@H](CCCCN)NC(=O)[C@H](CCCN)NCc2cccnc2Sc2c(F)ccc(-c3ccn(CC(=O)O)c(=O)c3)c2CNC(=O)[C@@H]1Cc1c[nH]c2ccccc12` [Example 9.01, 2-[4-[(11S,14S,17S)-14-(4-Aminobutyl)-11-(3-aminopropyl)-25-fluoro-17-(1H-indo1-3-ylmethyl)-16-methyl-12,15,18-trioxo-2-thia-4,10,13,16,19-pentazatricyclo[19.4.0.03,8]pentacosa-1(25),3(8),4,6,21,23-hexaen-22-yl]-2-oxo-1-pyridyl]acetic acid]: the “Plasma precipitation MEC” value in data set [1] (setting [2]) was >1690 µmol/L. Further, in the data set on A. baumannii ATCC 17978 (setting [3]), the IC50 stood at 81 nM.
